PMC6857076 (Pharmacology Research & Perspectives, 2019)
Where two headings read alike, the source gives them in different places.

What was measured:
[1] = test system: IL-13 cytokine receptor (JAK1/JAK2, JAK1/TYK2); test: Human whole blood, IL-13-induced pSTAT6, CD14+ cells; format: cell-based
Method: Blood was warmed to 37°C prior to use.
(§1) Anti‐cell surface antibodies were added 15 minutes prior to cytokine stimulation; anti‐CD14‐Pacific Blue (0.5 µL/well) to GM‐CSF, IFNγ, and TPO‐treated samples; anti‐CD3‐BV650 (0.5 µL/well) plus anti‐CD14‐Pacific Blue (0.5 µL/well) to IL‐6‐treated samples; and anti‐CD19‐BV421 (0.5 µL/well) plus anti‐CD14‐AF488 (0.5 µL/well) to IL‐13‐treated samples.
(§2) The lymphocyte population was gated for pSTAT histogram analysis for IFNα‐, IL‐2‐, IL‐3‐, IL‐4‐, IL‐7‐, IL‐10‐, IL‐12‐, IL‐15‐, IL‐21‐, IL‐23‐, and IL‐27‐treated samples; granulocyte population for G‐CSF‐treated samples; CD14^+ cells for GM‐CSF‐, IFNγ‐, and TPO‐treated samples; CD3^+ cells and CD14^+ cells for IL‐6‐treated samples; CD14^+ cells and CD19^+ cells for IL‐13‐treated samples; all events (entire populations) for EPO‐treated cells. Background fluorescence was defined using unstimulated cells and a gate was placed at the foot of the peak to include ~0.5% gated population.
(§3) Histogram statistical analysis was performed using FACSDiva version 8.0.1 (BD Biosciences). Relative fluorescence unit (RFU), which measures the level of pSTAT, was calculated by multiplying the percent positive population and its mean fluorescence. Data from 11 compound concentrations (singlicate at each concentration) were normalized as a percentage of control, as shown in Equation 1:(1) %ofcontrol=100×A−B/C−B
(§4) A, RFU from wells containing compound and cytokine; B, RFU from wells without cytokine (minimum fluorescence); C, RFU from wells containing only cytokine (maximum fluorescence).
(§5) Inhibition curves and IC50 values were determined using Prism software (Version 7, GraphPad).

[2] = human; upadacitinib 15 mg QD; cited from earlier work
[3] = test system: IL-4 cytokine receptor (JAK1/JAK3); test: Human whole blood, IL-4-induced pSTAT6, lymphocytes; format: cell-based; conditions: Lymphocyte
Method: Blood was warmed to 37°C prior to use.
(§6) Then, 5 µL of PBS or cytokine was added to each well (5 µL/well; final, 10 U/mL EPO, 100 ng/mL G‐CSF, 10 ng/mL GM‐CSF, 5000 U/mL IFNα, 100 ng/mL IFNγ, 50 ng/mL IL‐2, 50 ng/mL IL‐3, 5 ng/mL IL‐4, 50 ng/mL IL‐6, 30 ng/mL IL‐7, 30 ng/mL IL‐10, 30 ng/mL IL‐12, 30 ng/mL IL‐13, 30 ng/mL IL‐15, 50 ng/mL IL‐21, 25 ng/mL IL‐23, 1000 ng/mL IL‐27) and incubated for 15 minutes. Anti‐cell surface antibodies were added 15 minutes prior to cytokine stimulation; anti‐CD14‐Pacific Blue (0.5 µL/well) to GM‐CSF, IFNγ, and TPO‐treated samples; anti‐CD3‐BV650 (0.5 µL/well) plus anti‐CD14‐Pacific Blue (0.5 µL/well) to IL‐6‐treated samples; and anti‐CD19‐BV421 (0.5 µL/well) plus anti‐CD14‐AF488 (0.5 µL/well) to IL‐13‐treated samples.
(§7) One more wash was done with staining buffer and all samples were finally suspended in 150 µL/well of the desired anti‐pSTAT antibodies at 1:150 dilution in staining buffer; anti‐pSTAT1‐AF647 in IFNγ‐treated samples; anti‐pSTAT1‐AF488 and anti‐pSTAT3‐AF647 in IFNα‐, IL‐6‐, and IL‐27‐treated samples; anti‐pSTAT3‐AF647 in G‐CSF‐, IL‐10‐, IL‐21‐, and IL‐23‐treated samples; anti‐pSTAT4‐AF647 in IL‐12‐treated samples; anti‐pSTAT5‐AF647 in EPO‐, GM‐CSF‐, IL‐2‐, IL‐3‐, IL‐7‐, IL‐15‐, and TPO‐treated samples; anti‐pSTAT5‐AF488 and anti‐pSTAT6‐AF647 in IL‐4‐treated samples; and anti‐pSTAT6‐AF647 in IL‐13‐treated samples.
as §2, §3, §4, §5

[4] = test system: IL-3 cytokine receptor (JAK2/JAK2); test: Human whole blood, IL-3-induced pSTAT5, lymphocytes; format: cell-based; conditions: Homo sapiens, Lymphocyte
Method: Blood was warmed to 37°C prior to use.
as §6, §7, §2, §3, §4, §5

[5] = test system: IL-21 cytokine receptor (JAK1/JAK3); test: Human whole blood, IL-21-induced pSTAT3, lymphocytes; format: cell-based; conditions: Lymphocyte
Method: Blood was warmed to 37°C prior to use.
as §6, §7, §2, §3, §4, §5

[6] = test system: IL-7 cytokine receptor (JAK1/JAK3); test: Human whole blood, IL-7-induced pSTAT5, lymphocytes; format: cell-based; conditions: Lymphocyte
Method: Blood was warmed to 37°C prior to use.
as §6, §7, §2, §3, §4, §5

[7] = test system: IL-6 cytokine receptor (JAK1/JAK2, JAK1/TYK2); test: Human whole blood, IL-6-induced pSTAT1, CD14+ cells; format: cell-based
Method: Blood was warmed to 37°C prior to use.
as §1, §2, §3, §4, §5

[8] = test system: EPO cytokine receptor (JAK2/JAK2); test: Human whole blood spiked with CD34+-derived erythroid progenitor cells, EPO-induced pSTAT5; format: cell-based; conditions: for IC50: Homo sapiens, Erythroid progenitor cell
Method: CD34^+ cells were then harvested, washed once with Dulbecco's (D)‐PBS, and suspended at 0.5 x 10^6 cells/mL in human whole blood to be used in the EPO stimulation assay.
Blood was warmed to 37°C prior to use.
Background fluorescence was defined using unstimulated cells and a gate was placed at the foot of the peak to include ~0.5% gated population.
as §3, §4, §5

[9] = test system: IFNγ cytokine receptor (JAK1/JAK2); test: Human whole blood, IFNγ-induced pSTAT1, CD14+ cells; format: cell-based; conditions: for IC50: Homo sapiens
Method: Blood was warmed to 37°C prior to use.
as §6, §7, §2, §3, §4, §5

[10] = test system: IL-4 cytokine receptor (JAK1/JAK3); test: Human whole blood, IL-4-induced pSTAT5, lymphocytes; format: cell-based; conditions: Lymphocyte
Method: Blood was warmed to 37°C prior to use.
(§8) Then, 5 µL of PBS or cytokine was added to each well (5 µL/well; final, 10 U/mL EPO, 100 ng/mL G‐CSF, 10 ng/mL GM‐CSF, 5000 U/mL IFNα, 100 ng/mL IFNγ, 50 ng/mL IL‐2, 50 ng/mL IL‐3, 5 ng/mL IL‐4, 50 ng/mL IL‐6, 30 ng/mL IL‐7, 30 ng/mL IL‐10, 30 ng/mL IL‐12, 30 ng/mL IL‐13, 30 ng/mL IL‐15, 50 ng/mL IL‐21, 25 ng/mL IL‐23, 1000 ng/mL IL‐27) and incubated for 15 minutes. […]
as §2
(§9) Histogram statistical analysis was performed using FACSDiva version 8.0.1 (BD Biosciences). Relative fluorescence unit (RFU), which measures the level of pSTAT, was calculated by multiplying the percent positive population and its mean fluorescence. […]
as §5

[11] = test system: JAK-dependent cytokine receptors; test: Integrated modeling: calculated cytokine receptor inhibitory concentrations (ICxx); design: species or system human; conditions: calculated ICxx at clinically meaningful doses, Figure 1
From the text: An integrated modeling approach was applied to determine cytokine receptor inhibition profiles. Whole blood IC50 values were converted to unbound values (IC50,u) using measured blood‐to‐plasma ratios and measured fu values, as shown in Equation 2:(2) IC50,u=IC50/blood:plasma ratio×fu

[12] = test system: IFNα cytokine receptor (JAK1/TYK2); test: Human whole blood, IFNα-induced pSTAT3, lymphocytes; format: cell-based; conditions: Lymphocyte
Method: Blood was warmed to 37°C prior to use.
as §6, §7, §2, §3, §4, §5

[13] = test system: IL-15 cytokine receptor (JAK1/JAK3); test: Human whole blood, IL-15-induced pSTAT5, lymphocytes; format: cell-based; conditions: for IC50: Homo sapiens, Lymphocyte
Method: Blood was warmed to 37°C prior to use.
as §6, §7, §2, §3, §4, §5

[14] = phase 3 RA studies; cited from earlier work
[15] = test system: IL-12 cytokine receptor (JAK2/TYK2); test: Human whole blood, IL-12-induced pSTAT4, lymphocytes; format: cell-based; conditions: for IC50: Homo sapiens, Lymphocyte
Method: Blood was warmed to 37°C prior to use.
as §6, §7, §2, §3, §4, §5

CRP = conditions: RA; upadacitinib 6 mg BID; cited from earlier work
[16] = test system: GM-CSF cytokine receptor (JAK2/JAK2); test: Human whole blood, GM-CSF-induced pSTAT5, CD14+ cells; format: cell-based; conditions: Homo sapiens
Method: Blood was warmed to 37°C prior to use.
as §6, §7, §2, §3, §4, §5

[17] = test system: IL-2 cytokine receptor (JAK1/JAK3); test: Human whole blood, IL-2-induced pSTAT5, lymphocytes; format: cell-based; conditions: Lymphocyte
Method: Blood was warmed to 37°C prior to use.
as §6, §7, §2, §3, §4, §5

in vitro = conditions: both, human, pooled human plasma
[18] = test system: IL-27 cytokine receptor (JAK1/JAK2, JAK1/TYK2); test: Human whole blood, IL-27-induced pSTAT3, lymphocytes; format: cell-based; conditions: Lymphocyte
Method: Blood was warmed to 37°C prior to use.
as §6, §7, §2, §3, §4, §5

[19] = test system: IL-10 cytokine receptor (JAK1/TYK2); test: Human whole blood, IL-10-induced pSTAT3, lymphocytes; format: cell-based; conditions: Lymphocyte
Method: Blood was warmed to 37°C prior to use.
as §6, §7, §2, §3, §4, §5

[20] = test system: IL-6 cytokine receptor (JAK1/JAK2, JAK1/TYK2); test: Human whole blood, IL-6-induced pSTAT1, CD3+ cells; format: cell-based; conditions: for IC50: Homo sapiens
Method: Blood was warmed to 37°C prior to use.
as §6, §7, §2, §3, §4, §5

[21] = test system: IL-27 cytokine receptor (JAK1/JAK2, JAK1/TYK2); test: Human whole blood, IL-27-induced pSTAT1, lymphocytes; format: cell-based; conditions: Lymphocyte
Method: Blood was warmed to 37°C prior to use.
as §1, §2, §3, §4, §5

[22] = test system: G-CSF cytokine receptor (JAK1/JAK2); test: Human whole blood, G-CSF-induced pSTAT3, granulocytes; format: cell-based
Method: Blood was warmed to 37°C prior to use.
as §8, §2, §9, §5

[23] = test system: TPO cytokine receptor (JAK2/JAK2); test: Human whole blood, TPO-induced pSTAT5, CD14+ cells; format: cell-based; conditions: Homo sapiens
Method: Blood was warmed to 37°C prior to use.
as §6, §7, §2, §3, §4, §5

[24] = test system: IL-6 cytokine receptor (JAK1/JAK2, JAK1/TYK2); test: Human whole blood, IL-6-induced pSTAT3, CD3+ cells; format: cell-based
Method: Blood was warmed to 37°C prior to use.
as §1, §2, §3, §4, §5

[25] = test system: IFNα cytokine receptor (JAK1/TYK2); test: Human whole blood, IFNα-induced pSTAT1, lymphocytes; format: cell-based; conditions: for IC50: Homo sapiens, Lymphocyte
Method: Blood was warmed to 37°C prior to use.
as §6, §7, §2, §3, §4, §5

[26] = unbound, Cav × fu; upadacitinib 15 mg QD
NK cell counts = conditions: RA; upadacitinib 6 mg BID; week 12; cited from earlier work
[27] = test system: IL-13 cytokine receptor (JAK1/JAK2, JAK1/TYK2); test: Human whole blood, IL-13-induced pSTAT6, CD19+ cells; format: cell-based
Method: Blood was warmed to 37°C prior to use.
as §1, §2, §3, §4, §5

SMILES: CC[C@@H]1CN(C(=O)NCC(F)(F)F)C[C@@H]1c1cnc2cnc3[nH]ccc3n12 [Upadacitinib]
- IC50 ([1]; read-out: IC50, IL-13, pSTAT6, CD14+ cells): 126 nM
- IC50 ([1]; read-out: IC50,u, IL-13, pSTAT6, CD14+ cells): 61 nM
- Cav [2]: 49 nmol/L
- IC50 ([3]; read-out: IC50, IL-4, pSTAT6): 77 nM
- IC50 ([3]; read-out: IC50,u, IL-4, pSTAT6): 37 nM
- IC50 ([4]; read-out: IC50, IL-3, pSTAT5): 326 nM
- IC50 ([4]; read-out: IC50,u, IL-3, pSTAT5): 158 nM
- IC50 ([5]; read-out: IC50, IL-21, pSTAT3): 51 nM
- IC50 ([5]; read-out: IC50,u, IL-21, pSTAT3): 25 nM
- IC50 ([6]; read-out: IC50, IL-7, pSTAT5): 101 nM
- IC50 ([6]; read-out: IC50,u, IL-7, pSTAT5): 49 nM
- IC50 ([7]; read-out: IC50, IL-6, pSTAT1, CD14+ cells): 26 nM
- IC50 ([7]; read-out: IC50,u, IL-6, pSTAT1, CD14+ cells): 13 nM
- LogIC50, EPO induced pSTAT5, single experiment [8]: -6.909 log[M]
- IC50 ([8]; read-out: IC50, EPO induced pSTAT5, single experiment): 123 nM
- IC50 ([8]; read-out: IC50, EPO, pSTAT5): 174 nM
- IC50 ([8]; read-out: IC50,u, EPO, pSTAT5): 84 nM
- LogIC50, IFNγ induced pSTAT1, single experiment [9]: -7.002 log[M]
- IC50 ([9]; read-out: IC50, IFNγ induced pSTAT1, single experiment): 99.6 nM
- IC50 ([9]; read-out: IC50, IFNγ, pSTAT1): 109 nM
- IC50 ([9]; read-out: IC50,u, IFNγ, pSTAT1): 53 nM
- IC50 ([10]; read-out: IC50, IL-4, pSTAT5): 8.2 nM
- IC50 ([10]; read-out: IC50,u, IL-4, pSTAT5): 4 nM
- Inhibition (ICxx) of JAK1/JAK2-mediated (IFNγ, G-CSF) and JAK2-mediated (TPO, IL-3, GM-CSF) cytokine receptors vs other JAK inhibitors [11]: numerically greater
- IC50 ([12]; read-out: IC50, IFNα, pSTAT3): 19 nM
- IC50 ([12]; read-out: IC50,u, IFNα, pSTAT3): 9.2 nM
- LogIC50, IL-15 induced pSTAT5, single experiment [13]: -7.157 log[M]
- IC50 ([13]; read-out: IC50, IL-15, pSTAT5): 64 nM
- IC50 ([13]; read-out: IC50, IL-15 induced pSTAT5, single experiment): 69.7 nM
- IC50 ([13]; read-out: IC50,u, IL-15, pSTAT5): 31 nM
- herpes zoster occurrence [14]: reported
- LogIC50, IL-12 induced pSTAT4, single experiment [15]: -6.953 log[M]
- IC50 ([15]; read-out: IC50, IL-12, pSTAT4): 145 nM
- IC50 ([15]; read-out: IC50, IL-12 induced pSTAT4, single experiment): 112 nM
- IC50 ([15]; read-out: IC50,u, IL-12, pSTAT4): 70 nM
- reduction of CRP levels from baseline to week 12 (CRP): -8.8 mg/L
- IC50 ([16]; read-out: IC50, GM-CSF, pSTAT5): 782 nM
- IC50 ([16]; read-out: IC50,u, GM-CSF, pSTAT5): 377 nM
- IC50 ([17]; read-out: IC50, IL-2, pSTAT5): 50 nM
- IC50 ([17]; read-out: IC50,u, IL-2, pSTAT5): 24 nM
- fraction unbound at 6 h, 1 μmol/L (in vitro): 0.56
- IC50 ([18]; read-out: IC50, IL-27, pSTAT3): 44 nM
- IC50 ([18]; read-out: IC50,u, IL-27, pSTAT3): 21 nM
- IC50 ([19]; read-out: IC50, IL-10, pSTAT3): 90 nM
- IC50 ([19]; read-out: IC50,u, IL-10, pSTAT3): 43 nM
- LogIC50, IL-6 induced pSTAT1 (CD3+ cells), single experiment [20]: -7.893 log[M]
- IC50 ([20]; read-out: IC50, IL-6, pSTAT1, CD3+ cells): 12 nM
- IC50 ([20]; read-out: IC50, IL-6 induced pSTAT1 (CD3+ cells), single experiment): 12.8 nM
- IC50 ([20]; read-out: IC50,u, IL-6, pSTAT1, CD3+ cells): 5.9 nM
- IC50 ([21]; read-out: IC50, IL-27, pSTAT1): 52 nM
- IC50 ([21]; read-out: IC50,u, IL-27, pSTAT1): 25 nM
- IC50 ([22]; read-out: IC50, G-CSF, pSTAT3): 78 nM
- IC50 ([22]; read-out: IC50,u, G-CSF, pSTAT3): 38 nM
- IC50 ([23]; read-out: IC50, TPO, pSTAT5): 297 nM
- IC50 ([23]; read-out: IC50,u, TPO, pSTAT5): 143 nM
- IC50 ([24]; read-out: IC50, IL-6, pSTAT3, CD3+ cells): 152 nM
- IC50 ([24]; read-out: IC50,u, IL-6, pSTAT3, CD3+ cells): 73 nM
- LogIC50, IFNα induced pSTAT1, single experiment ([25]; Figure S1B, Donor 256, Exp 1): -7.685 log[M]
- IC50 ([25]; read-out: IC50, IFNα induced pSTAT1, single experiment): 20.7 nM
- IC50 ([25]; read-out: IC50, IFNα, pSTAT1): 21 nM
- IC50 ([25]; read-out: IC50,u, IFNα, pSTAT1): 10 nM
- Cav,u [26]: 27.4 nmol/L
- change from baseline in NK cell counts (NK cell counts): approximately −50 cells/mm^3
- IC50 ([27]; read-out: IC50, IL-13, pSTAT6, CD19+ cells): 72 nM
- IC50 ([27]; read-out: IC50,u, IL-13, pSTAT6, CD19+ cells): 35 nM
